Results as given in patent US20230219978A1, “COMPOUND HAVING MACROCYCLIC STRUCTURE AND USE THEREOF” (SCINNOHUB PHARMACEUTICAL CO., LTD, priority 2020, published 2023).

Key:
Type in all cases: biochemical
RET wt = target: T1, RET wt (Homo sapiens, UniProt P07949); test: In vitro kinase activity assay (mobility shift assay), RET wild type; details: ATP 16 μM, reaction time 60 min
T1 construct: purchased Carna 08-159
Procedure: (§1) The IC50 (half inhibitory concentration) values of the compounds were used as an indicator to evaluate the inhibitory effect of the compound on RET wild-type, RET mutant, TRKa, SRC, BTK and/or mutated BTK kinase.
(§2) Using the method of Mobility shift assay, the compounds were tested for inhibitory activity against the following kinases: RET wild type, RET mutant, TRKa, SRC, BTK and/or mutated BTK. The initial concentration of the test compound was 1000 nM, 3-fold dilution, 10 concentrations, detected in a well for each concentration.
(§3) 20 mM hydroxyethylpiperazineethanesulfonic acid (Hepes) (pH 7.5) buffer, 10 mM MgCl2, 1 mM ethylene glycol bis(aminoethyl ether)tetraacetic acid (EGTA), 0.02% polyoxyethylene lauryl ether (Brij35), 0.02 mg/ml […] (BSA), 0.1 mM Na3VO4, 2 mM dithiothreitol (DTT), 1% DMSO.
(§4) The test compounds were dissolved in 100% dimethyl sulfoxide (DMSO) system, and prepared as 10 mM for use, and stored in a nitrogen cabinet away from light.
(§5) • (1) Preparing 1× kinase reaction buffer. • (2) Preparation of compound concentration gradient: the initial concentration of the compounds was 1000 nM, which was diluted as 100-fold final concentration of solution in 100% dimethyl sulfoxide (DMSO) in a 384-well plate. The compound was accurately 3-fold diluted with the kinase buffer solution, 10 concentrations in total, and the final concentration was 0.0508 nM. The 100-fold final concentration of solution in 100% dimethyl sulfoxide (DMSO) was obtained by dilution in 384 source plate. The liquid separator Echo 550 was used to transfer 250 nl of 100-fold final concentration of compound to the target 384 well plate. 250 nl of DMSO was added to the positive and negative control wells. • (3) 2.5-fold final concentration of kinase solution was prepared by the 1× kinase buffer. • (4) 10 4, of 2.5-fold final concentration of kinase solution was added to the compound well and the positive control well, respectively; 10 4, of 1× kinase buffer was added to the negative control well. • (5) After centrifuging at 1000 rpm for 30 second, the reaction plate was shaken and mixed, followed by incubation at room temperature for 10 min. • (6) a mixed solution of 25/15-fold final concentration of adenosine triphosphate (ATP) and kinase substrate was prepared by 1× kinase buffer. • (7) The mixed solution (15 μL) of 25/15-fold final concentration of adenosine triphosphate (ATP) and substrate was added to initiate the reaction. • (8) 384-well plate was centrifuged at 1000 rpm for 30 second, shaken and mixed well, and then incubated at room temperature for 30-240 min. • (9) After stopping the kinase reaction, the plate was centrifugated at 1000 rpm for 30 second, shaken and mixed well. • (10)The conversion rate was read with Caliper EZ Reader.
(§6) wherein Conversion%_sample is the conversion rate reading of the sample; Conversion%_min: the mean value of negative control wells, representing the conversion rate reading of wells without enzymes; Conversion%_max: the mean value of positive control wells, representing the conversion rate reading of wells without compound inhibition.
(§7) The log value of concentration was taken as the X axis, and the percentage inhibition rate was taken as the Y axis. Graphpad 6.0 analysis software was used to fit the dose-response curve, so as to obtain the IC50 value of each compound on the enzyme activity

RET G810R = target: T2, RET G810R (Homo sapiens, UniProt P07949, G810R); test: In vitro kinase activity assay (mobility shift assay), RET G810R; details: ATP 201 μM, reaction time 4 h
T2 construct: purchased Proqinase 1724-0000-1
T2 sequence (P07949 29-1114 G810R): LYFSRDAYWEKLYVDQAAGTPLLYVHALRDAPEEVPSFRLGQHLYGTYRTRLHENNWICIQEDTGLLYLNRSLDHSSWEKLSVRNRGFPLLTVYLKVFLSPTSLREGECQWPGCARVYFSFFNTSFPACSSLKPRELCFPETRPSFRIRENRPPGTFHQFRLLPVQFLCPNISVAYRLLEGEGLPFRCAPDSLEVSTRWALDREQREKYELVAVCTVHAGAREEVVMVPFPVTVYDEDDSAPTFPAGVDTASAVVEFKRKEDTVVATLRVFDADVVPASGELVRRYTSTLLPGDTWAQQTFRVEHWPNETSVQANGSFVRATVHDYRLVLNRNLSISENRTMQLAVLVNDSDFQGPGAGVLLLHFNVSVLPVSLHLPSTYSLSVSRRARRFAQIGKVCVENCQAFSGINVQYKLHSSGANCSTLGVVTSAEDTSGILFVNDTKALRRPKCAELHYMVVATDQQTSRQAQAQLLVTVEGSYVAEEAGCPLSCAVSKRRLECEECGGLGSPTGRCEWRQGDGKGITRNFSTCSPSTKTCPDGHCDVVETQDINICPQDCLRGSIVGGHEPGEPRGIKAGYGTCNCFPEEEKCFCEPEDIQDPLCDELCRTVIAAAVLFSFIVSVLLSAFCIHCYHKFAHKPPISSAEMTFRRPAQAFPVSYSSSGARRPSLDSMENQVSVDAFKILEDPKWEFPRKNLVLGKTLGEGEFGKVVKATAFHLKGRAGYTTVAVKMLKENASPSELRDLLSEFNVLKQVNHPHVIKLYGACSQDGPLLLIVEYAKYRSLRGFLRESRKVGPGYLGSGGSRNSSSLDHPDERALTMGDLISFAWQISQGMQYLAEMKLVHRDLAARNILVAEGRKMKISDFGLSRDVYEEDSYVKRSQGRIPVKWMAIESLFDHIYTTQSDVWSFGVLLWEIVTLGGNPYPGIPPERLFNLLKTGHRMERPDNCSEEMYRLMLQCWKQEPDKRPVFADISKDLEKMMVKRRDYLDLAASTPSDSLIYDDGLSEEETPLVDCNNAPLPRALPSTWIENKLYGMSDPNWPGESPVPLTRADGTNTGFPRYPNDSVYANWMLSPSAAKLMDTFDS
Procedure: as §1, §2, §3, §4, §5, §6, §7

RET V804M = target: T3, RET V804M (Homo sapiens, UniProt P07949, V804M); test: In vitro kinase activity assay (mobility shift assay), RET V804M; details: ATP 5.4 μM, reaction time 60 min
T3 construct: purchased signalchem R02-12GG
T3 sequence (P07949 29-1114 V804M): as the sequence (P07949 29-1114 G810R) above, with V776M, R782G counted along it
Procedure: as §1, §2, §3, §4, §5, §6, §7

T1 sequence (P07949 29-1114): as the sequence (P07949 29-1114 G810R) above, with R782G counted along it

IC50 (RET wt)	IC50 (RET G810R)	IC50 (RET V804M)	SMILES
47 nM	> 1000 nM	–	CC(C)Nc1ccc(-c2c3nc4c(cnn4c2N)C(=O)NC[C@H](C)Oc2ncc(F)cc2CN3)cc1 [Example 57, (S, 1^3E, 1^4E)-1^7-amino-4^5-fluoro-1^6-(4-(isopropylamino)phenyl)-6-methyl-5-oxo-2,8-diaza-1(5,3)-pyrazolo[1,5-a]pyrimidin-4(3,2)-pyridinacyclononaphan-9-one]
1.1 nM	84.3 nM	–	CNC(=O)Nc1ccc(-c2c3nc4c(cnn4c2N)C(=O)NC[C@H](C)Oc2ncc(F)cc2CN3)cc1 [Example 55, 1-(4-((S, 1^3E, 1^4E)-1^7-amino-4^5-fluoro-6-methyl-9-oxo-5-oxo-2,8-diaza-1(5,3)-pyrazolo[1,5-a]pyrimidin-4(3,2)-pyridinacyclononaphan-1^6-yl)phenyl)-3-methylurea]
1.9 nM	197 nM	–	CNC(=O)Nc1ccc(-c2cn3ncc4c3nc2NCc2cc(F)cnc2O[C@@H](C)CNC4=O)c(Cl)c1 [Compound 35, 1-(3-chloro-4-((S, 1^3E, 1^4E)-4^5-fluoro-6-methyl-9-oxo-5-oxo-2,8-diaza-1(5,3)-pyrazolo[1,5-a]pyrimidin-4(3,2)-pyridinacyclononaphan-1^6-yl)phenyl)-3-methylurea]
> 1000 nM	> 1000 nM	> 1000 nM	C[C@H]1CNC(=O)c2cnn3cc(-c4ccc(Nc5ncco5)cc4)c(nc23)NCc2cc(F)cnc2O1 [Compound 42, (S, 1^3E, 1^4E)-4^5-fluoro-6-methyl-1^6-(4-(oxazol-2-amino)phenyl)-5-oxa-2,8-diaza-1(5,3)-pyrazolo[1,5-a] pyrimidin-4(3,2)-pyridinacyclononaphan-9-one]
1.1 nM	138 nM	9.5 nM	C[C@H]1CNC(=O)c2cnn3c(N)c(-c4cnn(C)c4)c(nc23)NCc2cc(F)cnc2O1 [Example 82, (S, 1^3E, 1^4E)-1^7-amino-4^5-fluoro-6-methyl-1^6-(1-methyl-1H-pyrazol-4-yl)-5-oxa-2,8-diaza-1(5,3)-pyrazolo[1,5-a]pyrimidin-4(3,2)-pyridinacyclononaphan-9-one]
27 nM	> 1000 nM	–	C[C@H]1CNC(=O)c2cnn3cc(-c4ccc(N)cc4)c(nc23)NCc2cc(F)cnc2O1 [Compound 36, (S, 1^3E, 1^4E)-1^6-(4-aminophenyl)-4^5-fluoro-6-methyl-5-oxo-2,8-diaza-1(5,3)-pyrazolo[1,5-a]pyrimidin-4(3,2)-pyridinacyclononaphan-9-one]
2.4 nM	130 nM	38 nM	COc1ccc(-c2c3nc4c(cnn4c2N)C(=O)NC[C@H](C)Oc2ncc(F)cc2CN3)cc1 [Example 59, (S, 1^3E, 1^4E)-1^7-amino-4^5-fluoro-1^6-(4-methoxyphenyl)-6-methyl-5-oxo-2,8-diaza-1(5,3)-pyrazolo[1,5-a]pyrimidin-4(3,2)-pyridinacyclononaphan-9-one]
0.26 nM	15 nM	0.94 nM	CCOC(=O)Nc1ccc(-c2c3nc4c(cnn4c2N)C(=O)NC[C@H](C)Oc2ncc(F)cc2CN3)cc1 [Example 62, ethyl (4-((S, 1^3E, 1^4E)-1^7-amino-4^5-fluoro-6-methyl-9-oxo-5-oxa-2,8-diaza-1(5,3)-pyrazolino [1,5-a]pyrimidin-4(3,2)-pyridinacyclononaphan-1^6-yl)-phenyl)carbamate]
89 nM	> 1000 nM	384 nM	CCN(C)C(=O)Nc1ccc(-c2c3nc4c(cnn4c2N)C(=O)NC[C@H](C)Oc2ncc(F)cc2CN3)cc1 [Example 81, 3-(4-((S, 1^3E,VE)-1^7-amino-4^5-fluoro-6-methyl-9-oxo-5-oxa-2,8-diaza-1(5,3)-pyrazolo[1,5-a]pyrimidin-4(3,2)-pyridinacyclononaphan-1^6-yl)-phenyl)-1-ethyl-1-methylure a]
6.2 nM	155 nM	15 nM	C[C@H]1CNC(=O)c2cnn3c(N)c(-c4ccc(NC(=O)OCC(F)(F)F)cc4)c(nc23)NCc2cc(F)cnc2O1 [Example 68, trifluoroethyl (4-((S, 1^3E, 1^4E)-1^7-amino-4^5-fluoro-6-methyl-9-oxo-5-oxa-2,8-diaza-1(5,3)-pyrazolino [1,5-a]pyrimidin-4(3,2)-pyridinacyclononaphan-1^6-yl)-phenyl)carbamate]
> 1000 nM	> 1000 nM	> 1000 nM	C[C@H]1CNC(=O)c2cnn3cc(-c4ccccc4)c(nc23)NCc2cc(Nc3ccccn3)cnc2O1 [Compound 48, (S, 1^3E, 1^4E)-6-methyl-1^6-phenyl-4^5-(pyridin-2-ylamino)-5-oxa-2,8-diaza-1(5,3)-pyrazolo[1,5-a]pyrimidina-4(3,2)-pyridinacyclononaphan-9-one]
5.4 nM	588 nM	–	C[C@H]1CNC(=O)c2cnn3c(N)c(-c4ccc5nc[nH]c5c4)c(nc23)NCc2cc(F)cnc2O1 [Compound 52, (S, 1^3E, 1^4E)-1^7-amino-1 ^6-(1H-benzo [d]imidazol-6-yl)-4^5-fluoro-6-methyl-5-oxo-2,8-diaza-1(5,3)-pyrazolo[1,5-a]pyrimidin-4(3,2)-pyridinacyclononaphan-9-one]
1 nM	21.8 nM	–	CC(C)OC(=O)Nc1ccc(-c2c3nc4c(cnn4c2N)C(=O)NC[C@H](C)Oc2ncc(F)cc2CN3)cc1 [Example 61, iso-propyl (4-((S, 1^3E, 1^4E)-1^7-amino-4^5-fluoro-6-methyl-9-oxo-5-oxa-2,8-diaza-1(5,3)-pyrazolino[1,5-a]pyrimidin-4(3,2)-pyridinacyclononaphan-1^6-yl)-phenyl)carbamate]
3.4 nM	155 nM	–	C[C@H]1CNC(=O)c2cnn3c(N)c(-c4ccc(N(C)C)cc4)c(nc23)NCc2cc(F)cnc2O1 [Example 58, (S, 1^3E, 1^4E)-1^7-amino-1^6-(4-(dimethylamino)phenyl)-4^5-fluoro-6-methyl-5-oxo-2,8-diaza-1(5,3)-pyrazolo[1,5-a]pyrimidin-4(3,2)-pyridinacyclononaphan-9-one]
286 nM	> 1000 nM	–	C[C@H]1CNC(=O)c2cnn3cc(-c4ccc(NS(C)(=O)=O)cc4Cl)c(nc23)NCc2cc(F)cnc2O1 [Compound 44]
5.1 nM	96.9 nM	–	C[C@H]1CNC(=O)c2cnn3cc(-c4ccc(NC(=O)OCC5CC5)cc4Cl)c(nc23)NCc2cc(F)cnc2O1 [Compound 46, cyclopropylmethyl (3-chloro-4-((S, 1^3E, 1^4E)-4^5-fluoro-6-methyl-9-oxo-5-oxadiaza-2,8-1(5,3)-pyrazolo[1,5-a]pyrimidin-4(3,2)-pyridinacyclononaphan-1^6-yl)phenyl)carbamate]
5.4 nM	377 nM	–	C[C@H]1CNC(=O)c2cnn3cc(-c4ccc5[nH]ccc5c4Cl)c(nc23)NCc2cc(F)cnc2O1 [Compound 34, (S, 1^3E, 1^4E)-1^6-(4-chloro-1H-indo1-5-yl)-4^5-fluoro-6-methyl-5-oxo-2,8-diaza-1(5,3)-pyrazolo[1,5-a]pyrimidin-4(3,2)-pyridinacyclononaphan-9-one]
3 nM	376 nM	–	CNc1ccc(-c2cn3ncc4c3nc2NCc2cc(F)cnc2O[C@@H](C)CNC4=O)c(Cl)c1 [Compound 39, (S, 1^3E, 1^4E)-1^6-(4-methylamino-2-chlorophenyl)-4^5-fluoro-6-methyl-5-oxa-2,8-diaza-1(5,3)-pyrazolo[1,5-a]pyrimidina-4(3,2)-pyridinacyclononaphan-9-one]
95 nM	> 1000 nM	–	C[C@H]1CNC(=O)c2cnn3cc(-c4cn[nH]c4)c(nc23)NCc2cc(F)cnc2O1 [Compound 37, (S, 1^3E, 1^4E)-4^5-fluoro-6-methyl-1^6-(1H-pyrazol-4-yl)-5-oxa-2,8-diaza-1(5,3)-pyrazolo[1,5-a]pyrimidin-4(3,2)-pyridinacyclononaphan-9-one]
